From PubChem BioAssay (NCI)
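Protocol summary: plate cells (96-well), add compound at 5 concentrations, incubate 48 h, interpolate endpoints linearly. GI50 marks 50% less growth. TGI marks complete inhibition of growth.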

Assays:
Assay in all cases: NCI anticancer screen, dose series, 48 h
IGROV1 ovarian = tested on: IGROV1 ovarian
NCI-H226 lung = tested on: NCI-H226 lung
SR leukemia = tested on: SR leukemia
HL-60(TB) leukemia = tested on: HL-60(TB) leukemia
SW-620 colon = tested on: SW-620 colon
MDA-MB-435 = tested on: MDA-MB-435
SF-268 CNS = tested on: SF-268 CNS
A498 renal = tested on: A498 renal
SK-MEL-2 melanoma = tested on: SK-MEL-2 melanoma
M14 melanoma = tested on: M14 melanoma
CCRF-CEM leukemia = tested on: CCRF-CEM leukemia
HT29 colon = tested on: HT29 colon
NCI/ADR-RES ovarian = tested on: NCI/ADR-RES ovarian
SF-295 CNS = tested on: SF-295 CNS
U251 CNS = tested on: U251 CNS
UO-31 renal = tested on: UO-31 renal
TK-10 renal = tested on: TK-10 renal
HOP-62 NSCLC = tested on: HOP-62 NSCLC
UACC-257 melanoma = tested on: UACC-257 melanoma
MDA-MB-231 breast = tested on: MDA-MB-231 breast
NCI-H23 lung = tested on: NCI-H23 lung
KM12 colon = tested on: KM12 colon
SK-MEL-28 melanoma = tested on: SK-MEL-28 melanoma
NCI-H460 lung = tested on: NCI-H460 lung
A549 NSCLC = tested on: A549 NSCLC
HCT-15 colon = tested on: HCT-15 colon
SK-OV-3 ovarian = tested on: SK-OV-3 ovarian
OVCAR-3 ovarian = tested on: OVCAR-3 ovarian
NCI-H522 lung = tested on: NCI-H522 lung
K-562 leukemia = tested on: K-562 leukemia
OVCAR-4 ovarian = tested on: OVCAR-4 ovarian
OVCAR-8 ovarian = tested on: OVCAR-8 ovarian
OVCAR-5 ovarian = tested on: OVCAR-5 ovarian
HCC-2998 colon = tested on: HCC-2998 colon
T-47D breast = tested on: T-47D breast
UACC-62 melanoma = tested on: UACC-62 melanoma
SNB-19 CNS = tested on: SNB-19 CNS
HOP-92 NSCLC = tested on: HOP-92 NSCLC
LOX IMVI melanoma = tested on: LOX IMVI melanoma
MOLT-4 leukemia = tested on: MOLT-4 leukemia
MDA-MB-468 breast = tested on: MDA-MB-468 breast
MCF7 breast = tested on: MCF7 breast
SF-539 CNS = tested on: SF-539 CNS
CAKI-1 renal = tested on: CAKI-1 renal
EKVX NSCLC = tested on: EKVX NSCLC
RPMI-8226 leukemia = tested on: RPMI-8226 leukemia
PC-3 prostate = tested on: PC-3 prostate
HS 578T breast = tested on: HS 578T breast
786-0 renal = tested on: 786-0 renal
ACHN renal = tested on: ACHN renal
MALME-3M melanoma = tested on: MALME-3M melanoma
SN12C renal = tested on: SN12C renal
DU-145 prostate = tested on: DU-145 prostate
BT-549 breast = tested on: BT-549 breast
SNB-75 CNS = tested on: SNB-75 CNS
COLO 205 colon = tested on: COLO 205 colon
SK-MEL-5 melanoma = tested on: SK-MEL-5 melanoma
RXF 393 renal = tested on: RXF 393 renal
HCT-116 colon = tested on: HCT-116 colon

Compound: O=C(c1ccccc1)c1ccc2nc(-c3ccccc3Br)[nH]c2c1
- GI50 (IGROV1 ovarian): 3.51 µM
- TGI (IGROV1 ovarian): 13.9 µM
- GI50 (NCI-H226 lung): 2660 nM
- TGI (NCI-H226 lung): 12.2 µM
- GI50 (SR leukemia): 2510 nM
- TGI (SR leukemia): 12.7 µM
- GI50 (HL-60(TB) leukemia): 2040 nM
- TGI (HL-60(TB) leukemia): 6.05 µM
- GI50 (SW-620 colon): 3.33 µM
- TGI (SW-620 colon): 13.2 µM
- GI50 (MDA-MB-435): 3.54 µM
- TGI (MDA-MB-435): 13.2 µM
- GI50 (SF-268 CNS): 3.1 µM
- TGI (SF-268 CNS): 12.3 µM
- GI50 (A498 renal): 17.3 µM
- TGI (A498 renal): 33 µM
- GI50 (SK-MEL-2 melanoma): 2010 nM
- TGI (SK-MEL-2 melanoma): 4.92 µM
- GI50 (M14 melanoma): 1770 nM
- TGI (M14 melanoma): 4.38 µM
- GI50 (CCRF-CEM leukemia): 2240 nM
- TGI (CCRF-CEM leukemia): 15.9 µM
- GI50 (HT29 colon): 2270 nM
- TGI (HT29 colon): 4.63 µM
- GI50 (NCI/ADR-RES ovarian): 2440 nM
- TGI (NCI/ADR-RES ovarian): 6.66 µM
- GI50 (SF-295 CNS): 5.54 µM
- TGI (SF-295 CNS): 18.2 µM
- GI50 (U251 CNS): 2000 nM
- TGI (U251 CNS): 4.59 µM
- GI50 (UO-31 renal): 4.95 µM
- TGI (UO-31 renal): 17.4 µM
- GI50 (TK-10 renal): 8.18 µM
- TGI (TK-10 renal): 21.3 µM
- GI50 (HOP-62 NSCLC): 3.23 µM
- TGI (HOP-62 NSCLC): 8.5 µM
- GI50 (UACC-257 melanoma): 2590 nM
- TGI (UACC-257 melanoma): 12.7 µM
- GI50 (MDA-MB-231 breast): 4.84 µM
- TGI (MDA-MB-231 breast): 19.5 µM
- GI50 (NCI-H23 lung): 2080 nM
- TGI (NCI-H23 lung): 6.5 µM
- GI50 (KM12 colon): 4.64 µM
- TGI (KM12 colon): 18.5 µM
- GI50 (SK-MEL-28 melanoma): 3.69 µM
- TGI (SK-MEL-28 melanoma): 14.7 µM
- GI50 (NCI-H460 lung): 4.22 µM
- TGI (NCI-H460 lung): 19.8 µM
- GI50 (A549 NSCLC): 10.2 µM
- TGI (A549 NSCLC): 28.2 µM
- GI50 (HCT-15 colon): 1740 nM
- TGI (HCT-15 colon): 3.78 µM
- GI50 (SK-OV-3 ovarian): 4.1 µM
- TGI (SK-OV-3 ovarian): 12.6 µM
- GI50 (OVCAR-3 ovarian): 2940 nM
- TGI (OVCAR-3 ovarian): 10.4 µM
- GI50 (NCI-H522 lung): 1530 nM
- TGI (NCI-H522 lung): 3.07 µM
- GI50 (K-562 leukemia): 2770 nM
- TGI (K-562 leukemia): > 100 µM
- GI50 (OVCAR-4 ovarian): 3.72 µM
- TGI (OVCAR-4 ovarian): 13.7 µM
- GI50 (OVCAR-8 ovarian): 3.81 µM
- TGI (OVCAR-8 ovarian): 35.4 µM
- GI50 (OVCAR-5 ovarian): 2480 nM
- TGI (OVCAR-5 ovarian): 5.7 µM
- GI50 (HCC-2998 colon): 8.69 µM
- TGI (HCC-2998 colon): 21.7 µM
- GI50 (T-47D breast): 2890 nM
- TGI (T-47D breast): 11.3 µM
- GI50 (UACC-62 melanoma): 3.57 µM
- TGI (UACC-62 melanoma): 16.4 µM
- GI50 (SNB-19 CNS): 4.41 µM
- TGI (SNB-19 CNS): 16.8 µM
- GI50 (HOP-92 NSCLC): 2080 nM
- TGI (HOP-92 NSCLC): 6.48 µM
- GI50 (LOX IMVI melanoma): 2450 nM
- TGI (LOX IMVI melanoma): 10.4 µM
- GI50 (MOLT-4 leukemia): 2210 nM
- TGI (MOLT-4 leukemia): 11.5 µM
- GI50 (MDA-MB-468 breast): 1730 nM
- TGI (MDA-MB-468 breast): 3.9 µM
- GI50 (MCF7 breast): 2150 nM
- TGI (MCF7 breast): 7.67 µM
- GI50 (SF-539 CNS): 1770 nM
- TGI (SF-539 CNS): 3.33 µM
- GI50 (CAKI-1 renal): 3.24 µM
- TGI (CAKI-1 renal): 11.3 µM
- GI50 (EKVX NSCLC): 2110 nM
- TGI (EKVX NSCLC): 4.92 µM
- GI50 (RPMI-8226 leukemia): 2650 nM
- TGI (RPMI-8226 leukemia): 11.8 µM
- GI50 (PC-3 prostate): 2480 nM
- TGI (PC-3 prostate): 10.8 µM
- GI50 (HS 578T breast): 3.79 µM
- TGI (HS 578T breast): 54 µM
- GI50 (786-0 renal): 2370 nM
- TGI (786-0 renal): 4.77 µM
- GI50 (ACHN renal): 2270 nM
- TGI (ACHN renal): 5.67 µM
- GI50 (MALME-3M melanoma): 2110 nM
- TGI (MALME-3M melanoma): 6.35 µM
- GI50 (SN12C renal): 2400 nM
- TGI (SN12C renal): 6.5 µM
- GI50 (DU-145 prostate): 4.33 µM
- TGI (DU-145 prostate): 15.4 µM
- GI50 (BT-549 breast): 1530 nM
- TGI (BT-549 breast): 3.15 µM
- GI50 (SNB-75 CNS): 3.23 µM
- TGI (SNB-75 CNS): 13.4 µM
- GI50 (COLO 205 colon): 2040 nM
- TGI (COLO 205 colon): 3.94 µM
- GI50 (SK-MEL-5 melanoma): 1850 nM
- TGI (SK-MEL-5 melanoma): 3.79 µM
- GI50 (RXF 393 renal): 1610 nM
- TGI (RXF 393 renal): 3.82 µM
- GI50 (HCT-116 colon): 2310 nM
- TGI (HCT-116 colon): 8.15 µM
